“Also recorded” adds a separate entry of the source. Read-outs that look alike come from different tables or passages of the source. Values belong to the compound of their own block, whether it stands above or below them.
Tests used:
[1] = Slurry studies of solid form inter-conversion; type: physicochemical; settings: for propensity of inter-conversion of the solid form in slurry: room temperature, absence of light, up to 14 days, solvents per substance (water, IPA, CH2Cl2, toluene, n-heptane, EtOAc, MeCN, THF, t-AmOH); for Slurries: diazoxide potassium salt, room-temperature slurry
[2] = Form conversion and degradation under thermal stress
Description: Studies were also conducted to evaluate the likelihood for conversion and degradation under thermal stress.

[3] = tested on: healthy volunteers
Description: (§1) A randomized double-blind, placebo-controlled clinical trial was conducted in 24 healthy volunteers. They were randomized in a 2:1 ratio of treated to placebo. […] The dose was administered once per day in the morning for a period of 7 days. A number of lipid parameters were measured at baseline and again on day 7 including fasting triglycerides, total cholesterol, LDL cholesterol, HDL cholesterol, and non-HDL cholesterol. Additionally, blood pressure was measured on a daily basis.
In PK008, the dose was administered as one and one ½ tablet formulation K′.

[4] = tested on: hypertriglyceridemic patients; assay: Clinical study in 12 hypertriglyceridemic patients (formulation U / K′ crossover): lipids; type: in vivo, human; settings: 435 mg/day diazoxide choline once per day, 15 days
Description: A clinical study was conducted in 12 hypertriglyceridemic patients. […] Treatment continued for 16 days. The endpoint of the study was percentage change from baseline to day 15 of triglycerides, total cholesterol, LDL cholesterol, HDL cholesterol and non-HDL cholesterol. Lipid parameters were measured at baseline and on days 7 and 15. Blood pressure was collected at multiple time points.

[5] = tested on: healthy volunteers; remark: listed apart in the source
Description: as §1

[6] = Excipient compatibility study for diazoxide choline salt; type: physicochemical
[7] = Moisture sorption analysis; type: physicochemical; settings: 25° C.
Description: Moisture Sorption Analysis was performed with a Hiden IGAsorp Moisture Sorption Instrument. […] The samples were allowed to equilibrate to an asymptotic weight at each point for a maximum of 4 hours. […] The resulting samples after desorption were dried at 80° C. for two hours and analyzed by XRPD.

[8] = tested on: Zucker Diabetic Fatty (ZDF) rats; settings: 150 mg/kg/day, 8 weeks; cited from earlier work
[9] = tested on: Zucker rats; settings: oral 1-10 mg/kg/day for 14 days; cited from earlier work
[10] = Study EC004, 435 mg, 7 days, Baseline
[11] = Study EC004, 435 mg, 7 days, End of treatment
[12] = Study TR002, 508 mg, 49 days, Baseline
[13] = Study TR002, 508 mg, 49 days, End of treatment
[14] = 60° C., closed environment, protected from light, 7 and 14 days, XRPD, DSC, HPLC

- propensity of inter-conversion of the solid form in slurry ([1]; listed as choline salt): no propensity of inter-conversion
- conversion and degradation under thermal stress [2]: did not show any significant degradation
Compound: CC1=Nc2ccc(Cl)cc2S(=O)(=O)[N-]1.C[N+](C)(C)CCO [Choline diazoxide salt]
- Diastolic blood pressure [3, 10]: 69.4 mmHg
- Systolic blood pressure [3, 10]: 113.2 mmHg
- Diastolic blood pressure [3, 11]: 63.2 mmHg
- Systolic blood pressure [3, 11]: 113.5 mmHg
- Diastolic blood pressure [3, 12]: 77.7 mmHg
- Systolic blood pressure [3, 12]: 118.1 mmHg
- Diastolic blood pressure [3, 13]: 67.0 mmHg
- Systolic blood pressure [3, 13]: 117.0 mmHg
- lipid response [4]: marked reductions in triglycerides, total cholesterol, LDL cholesterol, and nonHDL cholesterol and a marked increase in HDL cholesterol
- HDL cholesterol, mean ± SEM ([5]; 300 mg diazoxide/day, Baseline): 49 ± 3.3 mg/dL
- LDL cholesterol, mean ± SEM ([5]; 300 mg diazoxide/day, Baseline): 111 ± 5.8 mg/dL
- Total cholesterol, mean ± SEM ([5]; 300 mg diazoxide/day, Baseline): 175 ± 7.5 mg/dL
- Triglycerides, mean ± SEM ([5]; 300 mg diazoxide/day, Baseline): 76 ± 7.8 mg/dL
- non-HDL cholesterol, mean ± SEM ([5]; 300 mg diazoxide/day, Baseline): 126 ± 6.6 mg/dL
- HDL cholesterol, Percent change from baseline ([5]; 300 mg diazoxide/day, Day 7): 8.2%
- HDL cholesterol, mean ± SEM ([5]; 300 mg diazoxide/day, Day 7): 53 ± 2.9 mg/dL
- LDL cholesterol, Percent change from baseline ([5]; 300 mg diazoxide/day, Day 7): −5.4%
- LDL cholesterol, mean ± SEM ([5]; 300 mg diazoxide/day, Day 7): 105 ± 4.9 mg/dL
- Total cholesterol, Percent change from baseline ([5]; 300 mg diazoxide/day, Day 7): −2.3%
- Total cholesterol, mean ± SEM ([5]; 300 mg diazoxide/day, Day 7): 171 ± 6.4 mg/dL
- Triglycerides, Percent change from baseline ([5]; 300 mg diazoxide/day, Day 7): −13.2%
- Triglycerides, mean ± SEM ([5]; 300 mg diazoxide/day, Day 7): 66 ± 3.9 mg/dL
- non-HDL cholesterol, Percent change from baseline ([5]; 300 mg diazoxide/day, Day 7): −6.3%
- non-HDL cholesterol, mean ± SEM ([5]; 300 mg diazoxide/day, Day 7): 118 ± 5.5 mg/dL
- reduction in total cholesterol, LDL cholesterol and non-HDL cholesterol vs placebo arm ([5]; baseline to day 7, 300 mg/day diazoxide as formulation U): greater for each lipid parameter than the corresponding reduction in the placebo arm

- 1 Month 40° C./75% RH % (w/w) ([6]; one-month storage 40° C./75% RH): 99.0 % (w/w)
- 1 Month 50° C. % (w/w) ([6]; one-month storage 50° C.): 99.4 % (w/w)
Compound: CC1=Nc2ccc(Cl)cc2S(=O)(=O)N1 [Diazoxide Control]

- conversion and degradation under thermal stress [2]: Started to convert to Form
- Moisture sorption (hygroscopicity) [7]: hygroscopic solid
- water absorbed at 60% RH ([7]; listed as Form A): 2.4 wt %
Compound: CC1=Nc2ccc(Cl)cc2S(=O)(=O)[N-]1.C[N+](C)(C)CCO [Diazoxide choline salt Form A]
- propensity of inter-conversion of the solid form in slurry ([1]; listed as Form A): conversion to Form B was observed after seven days; also recorded: readily converted to Form B in all slurry solvents utilized; also recorded: Converted to Form B after

- conversion and degradation under thermal stress [2]: Stable after 14 days at
- water absorbed at 60% RH ([7]; listed as Form B): 7.4 wt %
Compound: CC1=Nc2ccc(Cl)cc2S(=O)(=O)[N-]1.C[N+](C)(C)CCO [Diazoxide choline salt Form B]
- propensity of inter-conversion of the solid form in slurry ([1]; listed as Form B): form conversion was not observed; also recorded: Stable after 14 days in

- Slurries [1]: Converted to Form D
Compound: CC1=NS(=O)(=O)c2cc(Cl)ccc2[N-]1.CC1=NS(=O)(=O)c2cc(Cl)ccc2[N-]1.O.[K+].[K+] [Diazoxide potassium salt Form D]

- Slurries [1]: Converted to Form D
- Thermal ([2]; diazoxide potassium salt, thermal stress, 7 days): Stable (7 days)
- Moisture sorption (hygroscopicity) [7]: hygroscopic solid
Compound: C1COCCO1.CC1=NS(=O)(=O)c2cc(Cl)ccc2[N-]1.CC1=NS(=O)(=O)c2cc(Cl)ccc2[N-]1.[K+].[K+] [Diazoxide potassium salt Form F]
- propensity of inter-conversion of the solid form in slurry [1]: readily converted to Form D in all slurry solvents utilized; also recorded: conversion to Form D was observed in all solvents

- conversion and degradation under thermal stress [2, 14]: no conversion or degradation
- water absorbed at 60% RH [7]: approximately 0.04 wt %
- water absorbed at 90% RH [7]: ~0.20 wt %
- Moisture sorption (hygroscopicity) ([7]; listed as Free form): no hysteresis
Compound: CC1=Nc2ccc(Cl)cc2S(=O)(=O)N1 [Diazoxide, 7-chloro-3-methyl-2H-1,2,4-benzothiadiazine 1,1 dioxide, reference compound]
- propensity of inter-conversion of the solid form in slurry [1]: did not convert to alternate crystal forms
- hepatic lipid contents [8]: decreased hepatic triglycerides, long chain acyl-CoA and cholesterol contents

Compound: N#CNC(=NCCc1ccccc1Cl)c1cncc(N)c1 [KRN4884]
- serum triglyceride levels [9]: dose dependently reduce serum triglyceride levels

- propensity of inter-conversion of the solid form in slurry [1]: no propensity of inter-conversion
- conversion and degradation under thermal stress [2, 14]: did not show any significant degradation
- water absorbed at 60% RH [7]: 5.4 wt %
- water absorbed at 90% RH [7]: 38.3 wt %
Compound: CC1=NS(=O)(=O)c2cc(Cl)ccc2[N-]1.[K+] [Potassium diazoxide salt]

- propensity of inter-conversion of the solid form in slurry [1]: no propensity of inter-conversion
- water absorbed at 60% RH [7]: 1.2 wt %
- water absorbed at 80% RH ([7]; 80% RH): 6.6 wt %
Compound: CC1=NS(=O)(=O)c2cc(Cl)ccc2[N-]1.[Na+] [Sodium diazoxide salt]
- conversion and degradation under thermal stress [2, 14]: little propensity to change form or degrade

Reference: patent US9765043B2, “Salts of potassium ATP channel openers and uses thereof” (Essentialis, Inc., priority 2012, dated 2017)
